Biological target: T1, human LXRβ (Homo sapiens, UniProt P55055)
T1 construct: expressed in transfected cells; host or cells: HEK293 cells (ATCC CRL-1573), transient transfection with pFA-hLXRβ/GAL4 and pUAS
T1 sequence (P55055 222-460 limits assumed): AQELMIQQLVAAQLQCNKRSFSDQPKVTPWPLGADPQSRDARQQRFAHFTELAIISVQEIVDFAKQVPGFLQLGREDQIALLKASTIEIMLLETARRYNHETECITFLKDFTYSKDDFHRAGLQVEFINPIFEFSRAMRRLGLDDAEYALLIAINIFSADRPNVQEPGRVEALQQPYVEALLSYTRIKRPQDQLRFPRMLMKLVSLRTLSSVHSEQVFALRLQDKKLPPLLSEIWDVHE
Assay: Assay for Transcriptional Activity of LXRβ (GAL4-hLXRβ LBD luciferase reporter, transient transfection)
Assay type: cell-based
Conditions: HEK293 cells transfected with pFA-hLXRβ/GAL4 and pUAS, 24 hours; for Emax: fold value in comparison with the control (DMSO-treated group); for EC50: increase of transcriptional activity of LXRβ, average of three independent tests
Summary of the method: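 HEK293 cells transiently co-transfected with GAL4-hLXRβ LBD and 5×GAL4-UAS luciferase reporter, treated 24 h at 37 °C with compounds over 9 points (0.01–50 μM, half-log). Luminescence read after lysis; EC50 from four-parameter fit, mean of three independent tests, with a known LXR agonist as positive control.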

Row | Structure (SMILES) | Emax [fold] | EC50 [nM]
1 | CS(=O)(=O)c1ccc(-c2ccnc(C3CC(C(F)(F)C(F)(F)F)=NN3c3ccc(F)cc3F)c2)cn1 (stereo not shown) [Example 178, 1-(2,4-difluoro-phenyl)-5-[4-(6-methanesulfonyl-pyridin-3-yl)-pyridin-2-yl]-3-pentafluoroethyl-4,5-dihydro-1H-pyrazole] | 82 | 543
2 | C[S+]([O-])c1ccc(-c2cccc(C3CC(C(F)(F)C(F)(F)F)=NN3c3ccc(Cl)cc3Cl)c2)cc1 (stereo not shown) [Example 42, 1-(2,4-dichloro-phenyl)-5-(4′-methanesulfinyl-biphenyl-3-yl)-3-pentafluoroethyl-4,5-dihydro-1H-pyrazole] | 103 | 593
3 | CS(=O)(=O)c1ccc(-c2cccc(C3CC(C(F)(F)C(F)(F)F)=NN3c3ccc(F)cc3F)c2)cc1C#N (stereo not shown) [Example 70, 5-[3′-cyano-4′-(methanesulfonyl)-biphenyl-3-yl]-1-(2,4-difluoro-phenyl)-3-pentafluoroethyl-4,5-dihydro-1H-pyrazole] | 62 | 466
4 | CSc1ccc(-c2cccc(C3CC(C(F)(F)C(F)(F)F)=NN3c3ccc(Cl)cc3F)c2)cc1 (stereo not shown) [Example 31, 1-(4-chloro-2-fluoro-phenyl)-5-(4′-methylsulfanyl-biphenyl-3-yl)-3-pentafluoroethyl-4,5-dihydro-1H-pyrazole] | 28 | 5660
5 | CNCCCS(=O)(=O)c1cccc(-c2cccc(C3CC(C(F)(F)C(F)(F)F)=NN3c3ccc(F)cc3F)c2)c1 (stereo not shown) [Example 89, 1-(2,4-difluoro-phenyl)-5-{3′-[3-(N-methyl-amino)-propane-1-sulfonyl]-biphenyl-3-yl}-3-pentafluoroethyl-4,5-dihydro-1H-pyrazole] | 106 | 382
6 | CN(CCCS(=O)(=O)c1cccc(-c2cccc(N3N=C(C(F)(F)C(F)(F)F)CC3c3ccc(F)cc3F)c2)c1)C(=O)OC(C)(C)C (stereo not shown) [Example 211, 5-(2,4-difluoro-phenyl)-1-{3′-[3-(N-BOC-N-methyl-amino)-propane-1-sulfonyl]-biphenyl-3-yl}-3-pentafluoroethyl-4,5-dihydro-1H-pyrazole] | 29 | 509
7 | O=C(CCC1CCCC1)N1CC=C(c2cccc(C3CC(C(O)(C(F)(F)F)C(F)(F)F)=NN3c3ccccc3Cl)c2)CC1 (stereo not shown) [Example 233, 1-(2-chloro-phenyl)-5-{3-[1-(3-cyclopentyl-propionyl)-1,2,3,6-tetrahydropyridin-4-yl]-phenyl}-3-[di-(trifluoromethyl)-hydroxy-methyl]-4,5-dihydro-1H-pyrazole] | 72 | 21
8 | COc1ccc(-c2cccc(C3CC(C(F)(F)C(F)(F)F)=NN3c3ccc(F)cc3F)c2)cn1 (stereo not shown) [Example 56, 1-(2,4-difluoro-phenyl)-5-[3-(6-methoxy-pyridin-3-yl)-phenyl]-3-pentafluoroethyl-4,5-dihydro-1H-pyrazole] | 78 | 2220
9 | CS(=O)(=O)c1ccc(-c2cc(C3CC(C(F)(F)C(F)(F)F)=NN3c3ccc(F)cc3F)ccc2F)cc1 (stereo not shown) [Example 129, 1-(2,4-difluoro-phenyl)-5-(6-fluoro-4′-methanesulfonyl-biphenyl-3-yl)-3-pentafluoroethyl-4,5-dihydro-1H-pyrazole] | 44 | 7990
10 | CSc1cccc(-c2ccc(C3CC(C(F)(F)C(F)(F)F)=NN3Cc3ccccc3Cl)cc2)c1 (stereo not shown) [Example 15, 1-(2-chloro-benzyl)-5-(3′-methylsulfanyl-biphenyl-4-yl)-3-pentafluoroethyl-4,5-dihydro-1H-pyrazole] | 23 | 14800

The remaining lines, values ahead:

Row | Emax [fold] | EC50 [nM] | Structure (SMILES)
11 | 53 | 800 | O=S(=O)(C1CC1)N1CCCN(c2ccc(C3CC(C(O)(C(F)(F)F)C(F)(F)F)=NN3c3ccccc3Cl)cc2)CC1 (stereo not shown) [Example 325, 1-(2-chloro-phenyl)-5-[4-(4-cyclopropanesulfonyl-homopiperazin-1-yl)-phenyl]-3-[di-(trifluoromethyl)-hydroxy-methyl]-4,5-dihydro-1H-pyrazole]
12 | 55 | 1070 | Nc1cccc(-c2ccc(C3CC(C(O)(C(F)(F)F)C(F)(F)F)=NN3c3ccccc3Cl)cc2)c1 (stereo not shown) [Example 253, 5-(3′-amino-biphenyl-4-yl)-1-(2-chloro-phenyl)-3-[di-(trifluoromethyl)-hydroxy-methyl]-4,5-dihydro-1H-pyrazole]
13 | 39 | 551 | OC(C1=NN(c2ccc(F)cc2F)C(c2ccc(-c3ccc(-n4cnnn4)cc3)cc2)C1)(C(F)(F)F)C(F)(F)F (stereo not shown) [Example 373, 1-(2,4-difluoro-phenyl)-5-(4′-tetrazol-1-yl-biphenyl-4-yl)-3-[di-(trifluoromethyl)-hydroxy-methyl]-4,5-dihydro-1H-pyrazole]
14 | 55 | 318 | CS(=O)(=O)c1ccc(-c2ccc(C3CC(C(O)(C(F)(F)F)C(F)(F)F)=NN3c3ccc(F)cc3F)cc2)cc1C#N (stereo not shown) [Example 390, 1-(2,4-difluoro-phenyl)-5-(3′-cyano-4′-methanesulfonyl-biphenyl-4-yl)-3-[di-(trifluoromethyl)-hydroxy-methyl]-4,5-dihydro-1H-pyrazole]
15 | 54 | 699 | OC(C1=NN(c2ccccc2Cl)C(c2ccc(-c3cccnc3F)cc2)C1)(C(F)(F)F)C(F)(F)F (stereo not shown) [Example 261, 1-(2-chloro-phenyl)-5-[4-(2-fluoro-pyridin-3-yl)-phenyl]-3-[di-(trifluoromethyl)-hydroxy-methyl]-4,5-dihydro-1H-pyrazole]
16 | 81 | 119 | O=C(c1ccc(Cl)cc1)N1CC=C(c2cccc(C3CC(C(O)(C(F)(F)F)C(F)(F)F)=NN3c3ccccc3Cl)c2)CC1 (stereo not shown) [Example 237, 5-{3-[1-(4-chloro-benzoyl)-1,2,3,6-tetrahydropyridin-4-yl]-phenyl}-1-(2-chloro-phenyl)-3-[di-(trifluoromethyl)-hydroxy-methyl]-4,5-dihydro-1H-pyrazole]
17 | 81 | 617 | COc1ccc(-c2ccc(C3CC(C(O)(C(F)(F)F)C(F)(F)F)=NN3c3ccccc3Cl)c(F)c2)cn1 (stereo not shown) [Example 343, 1-(2-chloro-phenyl)-5-[2-fluoro-4-(6-methoxy-pyridin-3-yl)-phenyl]-3-[di-(trifluoromethyl)-hydroxy-methyl]-4,5-dihydro-1H-pyrazole]
18 | 72 | 1270 | OC(C1=NN(c2ccccc2Cl)C(c2ccc(-c3cc4ccccc4s3)cc2)C1)(C(F)(F)F)C(F)(F)F (stereo not shown) [Example 263, 5-(4-benzo[b]thiophen-2-yl-phenyl)-1-(2-chloro-phenyl)-3-[di-(trifluoromethyl)-hydroxy-methyl]-4,5-dihydro-1H-pyrazole]
19 | 84 | 1940 | CC(=O)Nc1cccc(-c2ccc(C3CC(C(O)(C(F)(F)F)C(F)(F)F)=NN3c3ccccc3Cl)cc2)c1 (stereo not shown) [Example 309, 5-(3′-acetaminobiphenyl-4-yl)-1-(2-chloro-phenyl)-3-[di-(trifluoromethyl)-hydroxy-methyl]-4,5-dihydro-1H-pyrazole]
20 | 82 |  | CS(=O)(=O)c1cccc(-c2ccc(C3CC(C(O)(C(F)(F)F)C(F)(F)F)=NN3c3ccccc3Cl)s2)c1 (stereo not shown) [Example 419, 1-(2-chloro-phenyl)-5-{5-[3-(methylsulfonyl)-phenyl]-thiophen-2-yl}-3-[di-(trifluoromethyl)-hydroxy-methyl]-4,5-dihydro-1H-pyrazole]
21 | 43 | 2480 | OC(C1=NN(c2ccccc2Cl)C(c2ccc(-c3cccc(OC(F)(F)F)c3)cc2)C1)(C(F)(F)F)C(F)(F)F (stereo not shown) [Example 248, 1-(2-chloro-phenyl)-5-[3′-(trifluoromethoxy)-biphenyl-4-yl]-3-[di-(trifluoromethyl)-hydroxy-methyl]-4,5-dihydro-1H-pyrazole]
22 | 17 | 1660 | CC(C)(O)C(=O)N1CCN(c2ccc(C3CC(C(O)(C(F)(F)F)C(F)(F)F)=NN3c3ccccc3Cl)cc2)CC1 (stereo not shown) [Example 320, 1-(2-chloro-phenyl)-5-{4-[4-(2-hydroxy-2-methyl-propionyl)-piperazin-1-yl]-phenyl}-3-(di-(trifluoromethyl)-hydroxy-methyl]-4,5-dihydro-1H-pyrazole]
23 | 53 | 966 | CS(=O)(=O)N1CCN(c2ccc(C3CC(C(O)(C(F)(F)F)C(F)(F)F)=NN3c3ccc(F)cc3F)cc2)CC1 (stereo not shown) [Example 406, 1-(2,4-difluoro-phenyl)-5-[4-(4-methanesulfonyl-piperazin-1-yl)-phenyl]-3-[di-(trifluoromethyl)-hydroxy-methyl]-4,5-dihydro-1H-pyrazole]
24 | 96 | 1950 | CCOc1cccc(-c2ccc(C3CC(C(O)(C(F)(F)F)C(F)(F)F)=NN3c3ccccc3Cl)cc2)c1 (stereo not shown) [Example 251, 1-(2-chloro-phenyl)-5-(3′-ethoxy-biphenyl-4-yl)-3-[di-(trifluoromethyl)-hydroxy-methyl]-4,5-dihydro-1H-pyrazole]
25 | 45 | 10200 | CS(=O)(=O)N1CCN(c2ccc(C3CC(C(O)(C(F)(F)F)C(F)(F)F)=NN3c3ccccc3Cl)cn2)CC1 (stereo not shown) [Example 360, 1-(2-chloro-phenyl)-5-[6-(4-methanesulfonyl-piperazin-1-yl)-pyridin-3-yl]-3-[di-(trifluoromethyl)-hydroxy-methyl]-4,5-dihydro-1H-pyrazole]
